Assay results as given in patent US6008234A, “Benzamidine derivatives substituted by cyclic amino acid and cyclic hydroxy acid derivatives and their use as anti-coagulants” (Berlex Laboratories, Inc., priority 1997, dated 1999).
Non-standard residues stand in square brackets, D forms with d. Residues, ends and D or L forms follow the SMILES beside them. *: point of attachment. pNA = O=[N+]([O-])c1ccc(N*)cc1

What was measured:
Human thrombin = biological target: T1, Human thrombin (Homo sapiens, UniProt P00734); test: In vitro chromogenic assay for thrombin (S2302 cleavage); assay type: biochemical; conditions: 20 nM thrombin; pH 7.5; ambient temperature; substrate concentration stated equal to Km
T1 construct: Human thrombin stock solution; purchased Enzyme Research Lab
Description: (§1) The activities were determined as an initial rate of cleavage of the peptide p-nitroanilide by the enzyme. The cleavage product, p-nitroaniline, absorbs at 405 nm with a molar extinction coefficient of 9920 M^-1 cm^-1.
(§2) 50 mM TrisHCl, 150 mM NaCl, 2.5 mM CaCl2, and 0.1% polyethylene glycol 6000, pH 7.5.
2. Human thrombin stock solution: Stored at -80° C. (working solution (2×): 1200 ng/mL or 40 nM in assay buffer, prepare prior to use).
2. S2302 (Thrombin assay) stock solution: 10 mM in deionized H2 O, stored at 4° C. (working solution (4×): 1200 μM in assay buffer).
Assays were performed in 96-well microtiter plates in a total volume of 200 μl. […] Concentrations of the standard inhibitor compound in the assay were from 5 μM to 0.021 μM in 1 to 3 dilution. Concentration of the test compounds in the assay typically were from 10 μM to 0.041 μM in 1 to 3 dilution. For potent test compounds, the concentrations used in the factor Xa assay were further diluted 100 fold (100 nM to 0.41 nM) or 1000 fold (10 nM to 0.041 nM). […]
(§3) The enzyme kinetics were measured at 405 nm at 10 seconds intervals for five minutes in a THERMOmax plate reader at ambient temperature.
(§4) Enzyme rates were calculated as mOD/min based on the first two minutes readings. The IC50 values were determined by fitting the data to the log-logit equation (linear) or the Morrison equation (non-linear) with an EXCEL spread-sheet. […]

[1] = biological target: T2, Human tissue plasminogen activator (tPA) (Two chains, Sigma) (Homo sapiens, UniProt P00750); test: In vitro chromogenic assay for tPA (S2288 cleavage); assay type: biochemical; conditions: 10 nM tPA; pH 7.5; ambient temperature; substrate concentration stated equal to Km
T2 construct: purchased Sigma
T2 sequence (P00750 311-562 limits assumed): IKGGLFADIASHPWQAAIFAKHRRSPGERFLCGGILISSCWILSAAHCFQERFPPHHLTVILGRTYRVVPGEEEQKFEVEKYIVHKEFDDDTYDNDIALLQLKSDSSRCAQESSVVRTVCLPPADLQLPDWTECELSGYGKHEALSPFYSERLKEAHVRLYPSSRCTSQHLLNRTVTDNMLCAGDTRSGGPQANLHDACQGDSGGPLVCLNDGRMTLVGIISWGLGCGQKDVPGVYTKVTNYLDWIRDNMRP
T2 sequence (P00750 36-310 limits assumed): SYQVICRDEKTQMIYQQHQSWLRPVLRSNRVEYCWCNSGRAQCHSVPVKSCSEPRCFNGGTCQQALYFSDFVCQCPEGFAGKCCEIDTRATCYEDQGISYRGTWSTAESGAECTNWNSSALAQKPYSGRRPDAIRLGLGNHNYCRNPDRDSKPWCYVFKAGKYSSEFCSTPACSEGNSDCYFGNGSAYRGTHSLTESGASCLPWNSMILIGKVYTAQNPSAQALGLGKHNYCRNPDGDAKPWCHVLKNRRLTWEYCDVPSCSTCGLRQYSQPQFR
Description: as §1, §2
3. Human tissue plasminogen activator (tPA) (Two chains, Sigma) stock solution: 1 mg/mL, stored at -80° C. (working solution (2×): 1361 ng/mL in assay buffer, prepare prior to use).
3. S2288 (tPA assay) stock solution: 10 mM in deionized H2 O, stored at 4° C. (working solution (4×): 1484 μM in assay buffer).
Assays were performed in 96-well microtiter plates in a total volume of 200 μl. […] Concentrations of the standard inhibitor compound in the assay were from 5 μM to 0.021 μM in 1 to 3 dilution. Concentration of the test compounds in the assay typically were from 10 μM to 0.041 μM in 1 to 3 dilution. […]
as §3, §4

Row | Compound | Km (Human thrombin) [µM] | Km [1] [µM]
1 | N=C(N)NCCC[C@H](NC(=O)[C@H](Cc1ccccc1)NC(=O)[C@H]1CCCN1)C(=O)Nc1ccc([N+](=O)[O-])cc1 [Example S2302] (H-[dP]-Phe-Arg-pNA) | 300 | –
2 | CC[C@@H](C)[C@@H](N)C(=O)N1CCC[C@H]1C(=O)N[C@@H](CCCN=C(N)N)C(=O)Nc1ccc([N+](=O)[O-])cc1 [Example S2288] (H-[dI]-Pro-Arg-pNA) | – | 371
